The values below come from patent US20190275040A1, “COMPOUNDS AND METHODS FOR TREATING OR PREVENTING ALZHEIMER'S DISEASE” (YALE UNIVERSITY, priority 2016, published 2019).

Like-named read-outs stand apart in the source and are kept apart here.

A word on the Ki: it is a dissociation constant, usually derived from enzyme kinetics or from competition with a known ligand.

For assay [1], the target named is T1, Pyk2 (Homo sapiens, UniProt Q14289). As to conditions: cited from earlier work.
The subject of assay [2] is primary hippocampal neurons. Put plainly: Aβo-dependent dendritic spine loss in primary hippocampal neurons. Format: cell-based, mouse. The settings on record: Aβo for 4 days. From the text: FIGS. 11A-11H illustrate the finding that Aβo-induced dendritic spine deficits are prevented by deletion of Pyk2 and RhoA inhibition in primary neurons. FIG. 11A: Representative images of dendritic spine motility by standard deviation projection of time-lapse image. […] The standard deviation value for each pixel is shown by thermal color scale. Scale bar, 10 μm. FIG. 11B: Quantification of spine motility, expressed as % of changed area of spines with subtraction of changed area of dendritic shaft as background (changed area=(ΔAspine/Aspine×100)−(ΔAshaft/Ashaft×100)). […]
It was considered whether the acute effects of Aβo-induced, Pyk2-mediated decrease on spine motility might be translated into alteration in spine number over longer time periods. Dendritic spine density was measured in populations of vehicle and Aβo treated primary hippocampal neuron cultures. […]
Analysis and quantification of data were performed with Volocity software after max intensity projection. The numbers of dendritic spines were counted manually to estimate the density of primary or secondary dendritic branch by observer unaware of drug or genotype. For each condition, at least 3 dendrites were measured from each neuron and 5-7 neurons were imaged per coverslip. […]

The target in assay [3] is T1, Pyk2. The assay is described as follows: Luciferase-based (ADP-Glo) PYK2 kinase assay. In kind it is biochemical. As for the experimental part: Enzyme, substrate, ATP and inhibitors are diluted in Tyrosine Kinase Buffer. […] The resulting system is incubated at room temperature for 60 minutes. 5 μl of ADP-GLO™ Reagent are added. […] 10 μl of Kinase Detection Reagent are added. […] Luminescence is recorded (Integration time 0.5-1 second).

T1 sequence (Q14289 whole entry, species assumed): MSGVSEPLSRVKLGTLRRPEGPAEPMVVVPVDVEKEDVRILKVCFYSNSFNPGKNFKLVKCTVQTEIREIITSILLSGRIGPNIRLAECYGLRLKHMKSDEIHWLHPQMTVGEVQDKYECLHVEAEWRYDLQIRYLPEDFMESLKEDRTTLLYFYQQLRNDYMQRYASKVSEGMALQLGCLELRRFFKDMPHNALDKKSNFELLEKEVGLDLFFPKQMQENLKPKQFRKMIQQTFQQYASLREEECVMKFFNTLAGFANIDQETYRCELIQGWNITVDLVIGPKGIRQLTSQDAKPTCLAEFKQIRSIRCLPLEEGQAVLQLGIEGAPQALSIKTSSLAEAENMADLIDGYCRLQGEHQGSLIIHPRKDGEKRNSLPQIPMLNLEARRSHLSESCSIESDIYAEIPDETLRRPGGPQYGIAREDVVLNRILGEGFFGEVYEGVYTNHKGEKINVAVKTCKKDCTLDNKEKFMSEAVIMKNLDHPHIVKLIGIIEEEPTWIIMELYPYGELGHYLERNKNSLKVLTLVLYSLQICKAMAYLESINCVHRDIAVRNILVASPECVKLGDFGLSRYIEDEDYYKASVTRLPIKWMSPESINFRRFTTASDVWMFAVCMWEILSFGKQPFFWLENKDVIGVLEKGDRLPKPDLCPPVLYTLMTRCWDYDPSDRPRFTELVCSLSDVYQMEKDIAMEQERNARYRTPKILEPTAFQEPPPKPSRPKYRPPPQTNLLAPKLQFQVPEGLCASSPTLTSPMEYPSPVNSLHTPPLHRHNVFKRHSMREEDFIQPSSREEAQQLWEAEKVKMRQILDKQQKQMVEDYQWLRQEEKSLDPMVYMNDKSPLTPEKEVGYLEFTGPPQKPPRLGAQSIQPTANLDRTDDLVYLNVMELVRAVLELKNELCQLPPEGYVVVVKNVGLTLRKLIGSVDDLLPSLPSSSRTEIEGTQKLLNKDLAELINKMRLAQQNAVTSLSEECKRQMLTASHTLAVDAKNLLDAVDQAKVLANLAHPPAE

With `CCOc1ccc2nc(SCc3nc(N)nc(N4CCOCC4)n3)sc2c1` [PF-719, 4-(((6-ethoxybenzo[d]thiazol-2-yl)thio)methyl)-6-morpholino-1,3,5-triazin-2-amine], the Ki on Pyk2 [1] (isolated Pyk2, read-out: Ki for isolated Pyk2) is 15 nM; at Pyk2 [1] (read-out: Pyk2 Ki), 10 nM. In assay [2], the “Aβo dependent spine loss” value is “rescue fully Aβo dependent spine loss”. In addition, the “Pyk2 inhibition in luciferase-based biochemical assay” value at Pyk2 [3] is reported as “confirm the respective specificities”.
